Source: the supplement of paper PMC8617591

Experiments:
[1] = test system: Mycobacterium tuberculosis Erdman (autoluminescent); test: GRinf, maximum normalised growth rate inhibition (unitless (-1 to 1)); higher = less effect (negative = killing)
Experimental: (§1)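 DiaMOND equipotent two-drug combination dose responses against autoluminescent M. tuberculosis Erdman in 8 in vitro models. Read-out is OD600, or luminescence for the intracellular and dormancy models, normalised to untreated wells. Hill-fit Einf, AUC25 and GRinf are potency metrics; FIC50 and FIC90 are Loewe-additivity fractional inhibitory concentrations, given as log2 (negative = synergy). Replicates are averaged.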

[2] = test system: Mycobacterium tuberculosis Erdman (autoluminescent); test: FIC90 (Loewe) at 90% inhibition (log2); higher = more antagonistic
Experimental: as §1

[3] = test system: Mycobacterium tuberculosis Erdman (autoluminescent); test: AUC25, normalised area under dose response up to IC25 (fraction (0-1)); higher = more potent at low dose
Experimental: as §1

[4] = test system: Mycobacterium tuberculosis Erdman (autoluminescent); test: FIC50 (Loewe) at 50% inhibition (log2); higher = more antagonistic
Experimental: as §1

[5] = test system: Mycobacterium tuberculosis Erdman (autoluminescent); test: Einf, fitted maximum growth inhibition of combination (fraction); higher = stronger maximal inhibition
Experimental: as §1

CC[C@@H](CO)NCCN[C@@H](CC)CO [ethambutol] + CO[C@H]1/C=C/O[C@@]2(C)Oc3c(C)c(O)c4c(O)c(c(/C=N/N5CCN(C6CCCC6)CC5)c(O)c4c3C2=O)NC(=O)/C(C)=C\C=C\[C@H](C)[C@H](O)[C@@H](C)[C@@H](O)[C@@H](C)[C@H](OC(C)=O)[C@@H]1C [rifapentine]
Details | AUC25, [3] | Einf, [5] | FIC50, [4] | FIC90, [2] | GRinf, [1]
in vitro model: acidic pH 5.7, time point: constant (~7 days, model-specific) | 0.0932 | 0.893 | -0.302 | – | -0.289
in vitro model: acidic pH 5.7, time point: terminal (~4-5 doublings, model-specific) | 0.0462 | 0.985 | 0.0731 | -0.209 | -0.287
in vitro model: intracellular J774, time point: constant = terminal | – | 0.959 | – | -2.62 | -0.236

Details | AUC25, [3] | Einf, [5] | FIC50, [4] | FIC90, [2] | GRinf, [1]
in vitro model: butyrate, time point: constant (~7 days, model-specific) | 0.0627 | 0.91 | 0.244 | – | 0.0321
in vitro model: butyrate, time point: terminal (~4-5 doublings, model-specific) | 0.0478 | 0.959 | 0.226 | -0.659 | 0.0099
in vitro model: cholesterol 0.05 mM, time point: constant (~7 days, model-specific) | 0.118 | 0.694 | 0.509 | – | -0.191
in vitro model: cholesterol 0.05 mM, time point: terminal (~4-5 doublings, model-specific) | 0.0857 | 0.889 | 0.404 | – | -0.163
in vitro model: cholesterol-high 0.2 mM, time point: constant (~7 days, model-specific) | 0.0262 | 0.944 | 0.734 | – | -0.482
in vitro model: cholesterol-high 0.2 mM, time point: terminal (~4-5 doublings, model-specific) | 0.0335 | 1 | 0.916 | 0.787 | -0.739
in vitro model: dormancy (butyrate + nitrate, low O2), time point: constant (~7 days, model-specific) | 0.103 | 0.855 | 0.28 | – | 0.366
in vitro model: dormancy (butyrate + nitrate, low O2), time point: terminal (~4-5 doublings, model-specific) | 0.119 | 0.99 | 0.137 | 0.579 | -0.485
in vitro model: standard 7H9 glycerol, time point: constant = terminal | 0.0363 | 0.939 | 0.0721 | -0.243 | -0.0574
in vitro model: valerate, time point: constant (~7 days, model-specific) | 0.0721 | 0.874 | 0.0991 | – | 0.0371
in vitro model: valerate, time point: terminal (~4-5 doublings, model-specific) | 0.034 | 0.935 | 0.275 | -0.509 | 0.0428

CC[C@@H](CO)NCCN[C@@H](CC)CO [ethambutol] + CO[C@H]1/C=C/O[C@@]2(C)Oc3c(C)c(O)c4c(O)c(c(/C=N/N5CCN(C)CC5)c(O)c4c3C2=O)NC(=O)/C(C)=C\C=C\[C@H](C)[C@H](O)[C@@H](C)[C@@H](O)[C@@H](C)[C@H](OC(C)=O)[C@@H]1C [rifampicin]
Details | AUC25, [3] | Einf, [5] | FIC50, [4] | FIC90, [2] | GRinf, [1]
in vitro model: acidic pH 5.7, time point: constant (~7 days, model-specific) | 0.0993 | 0.914 | -0.394 | – | -0.41
in vitro model: acidic pH 5.7, time point: terminal (~4-5 doublings, model-specific) | 0.0298 | 0.979 | 0.0255 | -0.711 | -0.247
in vitro model: intracellular J774, time point: constant = terminal | – | 0.967 | – | -2.96 | -0.274

Details | AUC25, [3] | Einf, [5] | FIC50, [4] | FIC90, [2] | GRinf, [1]
in vitro model: butyrate, time point: constant (~7 days, model-specific) | 0.0748 | 0.918 | 0.144 | – | -0.00723
in vitro model: butyrate, time point: terminal (~4-5 doublings, model-specific) | 0.0614 | 0.965 | 0.0567 | -0.897 | -0.02
in vitro model: cholesterol 0.05 mM, time point: constant (~7 days, model-specific) | 0.0842 | 0.701 | -0.298 | – | -0.173
in vitro model: cholesterol 0.05 mM, time point: terminal (~4-5 doublings, model-specific) | 0.0953 | 0.887 | 0.234 | – | -0.127
in vitro model: cholesterol-high 0.2 mM, time point: constant (~7 days, model-specific) | 0.029 | 0.952 | 0.64 | – | -0.414
in vitro model: cholesterol-high 0.2 mM, time point: terminal (~4-5 doublings, model-specific) | 0.0647 | 0.996 | 0.607 | 0.842 | -0.635
in vitro model: dormancy (butyrate + nitrate, low O2), time point: constant (~7 days, model-specific) | 0.0667 | 0.847 | -0.0202 | – | 0.407
in vitro model: dormancy (butyrate + nitrate, low O2), time point: terminal (~4-5 doublings, model-specific) | 0.067 | 0.988 | 0.236 | -0.513 | -0.164
in vitro model: standard 7H9 glycerol, time point: constant = terminal | 0.0324 | 0.894 | -0.0789 | – | 0.143
in vitro model: valerate, time point: constant (~7 days, model-specific) | 0.0519 | 0.845 | -0.00587 | – | 0.0704
in vitro model: valerate, time point: terminal (~4-5 doublings, model-specific) | 0.0294 | 0.933 | 0.0274 | -1.32 | 0.0354

CC[C@@H](CO)NCCN[C@@H](CC)CO [ethambutol] + COc1c(N2C[C@@H]3CCCN[C@@H]3C2)c(F)cc2c(=O)c(C(=O)O)cn(C3CC3)c12 [moxifloxacin]
Details | AUC25, [3] | Einf, [5] | FIC50, [4] | FIC90, [2] | GRinf, [1]
in vitro model: acidic pH 5.7, time point: constant (~7 days, model-specific) | 0.0862 | 0.734 | -0.277 | – | -0.475
in vitro model: acidic pH 5.7, time point: terminal (~4-5 doublings, model-specific) | 0.0741 | 0.954 | 0.597 | 0.0622 | -0.293
in vitro model: intracellular J774, time point: constant = terminal | – | 0.983 | – | -1.25 | -0.327

Details | AUC25, [3] | Einf, [5] | FIC50, [4] | FIC90, [2] | GRinf, [1]
in vitro model: butyrate, time point: constant (~7 days, model-specific) | 0.0864 | 0.923 | 0.483 | – | -0.00896
in vitro model: butyrate, time point: terminal (~4-5 doublings, model-specific) | 0.0649 | 0.968 | 0.451 | 0.0888 | -0.0343
in vitro model: cholesterol 0.05 mM, time point: constant (~7 days, model-specific) | 0.0757 | 0.731 | 0.0661 | – | -0.25
in vitro model: cholesterol 0.05 mM, time point: terminal (~4-5 doublings, model-specific) | 0.0944 | 0.944 | 0.765 | 0.527 | -0.264
in vitro model: cholesterol-high 0.2 mM, time point: constant (~7 days, model-specific) | 0.0274 | 0.942 | 0.681 | – | -0.404
in vitro model: cholesterol-high 0.2 mM, time point: terminal (~4-5 doublings, model-specific) | 0.0429 | 0.999 | 0.886 | 0.669 | -0.639
in vitro model: dormancy (butyrate + nitrate, low O2), time point: constant (~7 days, model-specific) | 0.105 | 0.833 | 0.352 | – | 0.45
in vitro model: dormancy (butyrate + nitrate, low O2), time point: terminal (~4-5 doublings, model-specific) | 0.0964 | 0.967 | -0.052 | 0.0461 | -0.155
in vitro model: standard 7H9 glycerol, time point: constant = terminal | 0.066 | 0.975 | 0.0276 | -0.116 | -0.21
in vitro model: valerate, time point: constant (~7 days, model-specific) | 0.0569 | 0.878 | 0.703 | – | -0.0437
in vitro model: valerate, time point: terminal (~4-5 doublings, model-specific) | 0.0611 | 0.955 | 0.344 | -0.489 | -0.0314

CC[C@@H](CO)NCCN[C@@H](CC)CO [ethambutol] + NC(=O)c1cnccn1 [pyrazinamide]
Details | AUC25, [3] | Einf, [5] | FIC50, [4] | FIC90, [2] | GRinf, [1]
in vitro model: acidic pH 5.7, time point: constant (~7 days, model-specific) | 0.0998 | 0.866 | -0.632 | – | -0.453
in vitro model: acidic pH 5.7, time point: terminal (~4-5 doublings, model-specific) | 0.0625 | 0.968 | 0.212 | -0.791 | -0.281
in vitro model: intracellular J774, time point: constant = terminal | – | 0.994 | – | -0.166 | -0.569

Details | AUC25, [3] | Einf, [5] | FIC50, [4] | FIC90, [2] | GRinf, [1]
in vitro model: butyrate, time point: constant (~7 days, model-specific) | 0.0986 | 0.866 | 0.466 | – | 0.133
in vitro model: butyrate, time point: terminal (~4-5 doublings, model-specific) | 0.0883 | 0.817 | 0.636 | – | -0.101
in vitro model: cholesterol 0.05 mM, time point: constant (~7 days, model-specific) | 0.129 | 0.722 | – | – | -0.326
in vitro model: cholesterol 0.05 mM, time point: terminal (~4-5 doublings, model-specific) | 0.14 | 0.901 | -0.0968 | – | -0.224
in vitro model: cholesterol-high 0.2 mM, time point: constant (~7 days, model-specific) | 0.0356 | 0.843 | 0.961 | – | -0.204
in vitro model: cholesterol-high 0.2 mM, time point: terminal (~4-5 doublings, model-specific) | 0.0539 | 0.999 | 0.865 | 0.821 | -0.777
in vitro model: dormancy (butyrate + nitrate, low O2), time point: constant (~7 days, model-specific) | 0.0925 | 0.813 | -0.134 | – | 0.463
in vitro model: dormancy (butyrate + nitrate, low O2), time point: terminal (~4-5 doublings, model-specific) | 0.085 | 0.945 | 0.32 | -0.408 | 0.154
in vitro model: standard 7H9 glycerol, time point: constant = terminal | 0.0625 | 0.873 | 0.18 | – | 0.0807
in vitro model: valerate, time point: constant (~7 days, model-specific) | 0.0825 | 0.705 | -0.152 | – | 0.281
in vitro model: valerate, time point: terminal (~4-5 doublings, model-specific) | 0.0643 | 0.862 | 0.447 | – | 0.248
